Where “and” joins values, the source holds several entries; their conditions need not be identical. Identical values can stand only once.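 How tested: cells in 96-well plates exposed to compound for 48 hours at five concentrations. GI50 = concentration required for 50% inhibition of growth. TGI is the concentration that stops growth completely.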

One assay concerns MDA-MB-231 breast. Put plainly: NCI anticancer screen, dose series, 48 h.
Consider `COc1ccc2c(c1)C(C)Cc1c(ncnc1-n1c(C)nc3ccccc31)N2C` (stereo unspecified), for which the GI50 is 4.56 µM and the TGI is 28.2 µM.
`COc1ccc2[nH]c3c4c(ccc3c2c1)C(=O)C=CC4=O` had a TGI of 35.4 µM.
Same read-out and setting: as for `COc1cc2c(cc1O)C1Cc3ccc(OC)c(O)c3C(C2)N1C` (stereo unspecified), the figure is more than 100 µM.
Take `CCOC(=O)CNC(=O)c1ccccc1Nc1ccnc(C(F)(F)F)c1`: the GI50 was 33.4 µM and the TGI was more than 73.1 µM.
Consider `COc1ccc2c(c1)[C@@]13CCCC[C@H]1[C@@H](C2)N(C)CC3=O`, for which the TGI came to 36.4 µM.
Consider `COc1cccc(/C(COc2ccc3c(c2)oc(=O)c2cc(OC)ccc23)=N/O)c1`, for which the GI50 is 4.37 µM and the TGI was 71 µM.
As for `N=C(N)SCc1cccc(-c2nc3ccccc3c(=O)o2)c1`, the TGI is more than 100 µM.
As to `COc1cc2c(c(OC)n1)[C@]1(O)[C@H](O)[C@H](CN(C)C)[C@@H](c3ccccc3)[C@]1(c1ccc(C#N)cc1)O2`, the GI50 is 0.0336 µM and 0.0242 µM; the TGI is 1.72 µM and 1.48 µM.
Take `C=CCSS/C=C/CS(=O)CC=C` (stereo unspecified): the TGI was 56.3 µM.
In the case of `Oc1cn(-c2ccc(Cl)cc2)nc1-c1n[nH]c(=S)n1C1CCCCC1`, the GI50 is 2.22 µM and the TGI was more than 90.7 µM.
The like results for `COc1ccc(Nc2c3ccccc3nc3occ(Cl)c23)cc1` were, in that order, less than 0.01 µM and 0.0648 µM.
The like results for `O=C(/C=C/c1cc(CN2CCOCC2)c(O)c2ncccc12)c1cc(CN2CCOCC2)c(O)c2ncccc12` were, in that order, 0.145 µM and more than 100 µM.
The like results for `[Au+].[Au+].[Au+].[c-]1nccn1Cc1ccccc1.[c-]1nccn1Cc1ccccc1.[c-]1nccn1Cc1ccccc1` were, in that order, 22 µM and 70.5 µM.
With `Cn1cc(C2=C(c3cn(CCCCCN)c4ccccc34)C(=O)NC2=O)c2ccccc21`, the GI50 is 17.1 µM and the TGI was more than 25 µM.
The like results for `Cc1cc[c-]cc1.Fc1c[c-]c(-c2ccccn2)c(F)c1.[Pt+2].c1ccc(P(C[PH+](c2ccccc2)c2ccccc2)c2ccccc2)cc1` were, in that order, 2.6 µM and 8.47 µM.
In the same order, the values of `COc1cc2ncn(-c3cc(OCCc4ccccc4)c(C(N)=O)s3)c2cc1OC` are 24.6 µM and more than 25 µM.
As to `CCCCC1(CN2CCOCC2)S/C(=N/c2nc(CC(=O)OCC)cs2)NC1=O` (stereo unspecified), the GI50 was 25.8 µM and the TGI was 74.2 µM.

The test system of the next assay is OVCAR-3 ovarian. Put plainly: NCI anticancer screen, dose series, 48 h.
For `COc1ccc2c(c1)C(C)Cc1c(ncnc1-n1c(C)nc3ccccc31)N2C` (stereo unspecified), the GI50 is 2.53 µM and the TGI is 8.79 µM.
`COc1ccc2[nH]c3c4c(ccc3c2c1)C(=O)C=CC4=O`: the TGI stood at 20.8 µM.
Still for that read-out and setting: as for `COc1cc2c(cc1O)C1Cc3ccc(OC)c(O)c3C(C2)N1C` (stereo unspecified), the figure is more than 100 µM.
Consider `CCOC(=O)CNC(=O)c1ccccc1Nc1ccnc(C(F)(F)F)c1`, for which the GI50 was 20.2 µM and the TGI turned out to be 56.9 µM.
With `COc1ccc2c(c1)[C@@]13CCCC[C@H]1[C@@H](C2)N(C)CC3=O`, the TGI worked out at 32.9 µM.
With `COc1cccc(/C(COc2ccc3c(c2)oc(=O)c2cc(OC)ccc23)=N/O)c1`, the GI50 was 4.18 µM and the TGI was more than 100 µM.
As for `N=C(N)SCc1cccc(-c2nc3ccccc3c(=O)o2)c1`, the TGI is more than 100 µM.
In the case of `COc1cc2c(c(OC)n1)[C@]1(O)[C@H](O)[C@H](CN(C)C)[C@@H](c3ccccc3)[C@]1(c1ccc(C#N)cc1)O2`, the GI50 is 0.0334 µM and 0.0146 µM; the TGI was 2.78 µM and 1.87 µM.
In turn, `C=CCSS/C=C/CS(=O)CC=C` (stereo unspecified) came in with a TGI of more than 95.9 µM.
For the compound `Oc1cn(-c2ccc(Cl)cc2)nc1-c1n[nH]c(=S)n1C1CCCCC1`, the GI50 is less than 0.0456 µM and the TGI amounted to 0.424 µM.
In the same order, the values of `COc1ccc(Nc2c3ccccc3nc3occ(Cl)c23)cc1` are less than 0.01 µM and less than 0.0166 µM.
In the same order, the values of `O=C(/C=C/c1cc(CN2CCOCC2)c(O)c2ncccc12)c1cc(CN2CCOCC2)c(O)c2ncccc12` are 0.0535 µM and more than 100 µM.
The like results for `[Au+].[Au+].[Au+].[c-]1nccn1Cc1ccccc1.[c-]1nccn1Cc1ccccc1.[c-]1nccn1Cc1ccccc1` were, in that order, 2.33 µM and 5.27 µM.
With `Cn1cc(C2=C(c3cn(CCCCCN)c4ccccc34)C(=O)NC2=O)c2ccccc21`, the GI50 is 7.8 µM and the TGI was more than 23.2 µM.
Turning to `Cc1cc[c-]cc1.Fc1c[c-]c(-c2ccccn2)c(F)c1.[Pt+2].c1ccc(P(C[PH+](c2ccccc2)c2ccccc2)c2ccccc2)cc1`, the GI50 is 1.72 µM and the TGI came to 10.6 µM.
`COc1cc2ncn(-c3cc(OCCc4ccccc4)c(C(N)=O)s3)c2cc1OC`: the GI50 was more than 25 µM and the TGI was more than 25 µM.
`CCCCC1(CN2CCOCC2)S/C(=N/c2nc(CC(=O)OCC)cs2)NC1=O` (stereo unspecified): the GI50 is 21.2 µM and the TGI was 67.7 µM.

The test system of the next assay is OVCAR-4 ovarian. Put plainly: NCI anticancer screen, dose series, 48 h.
`COc1ccc2c(c1)C(C)Cc1c(ncnc1-n1c(C)nc3ccccc31)N2C` (stereo unspecified): the GI50 is 6.24 µM and the TGI came out at 61.8 µM.
The compound `COc1ccc2[nH]c3c4c(ccc3c2c1)C(=O)C=CC4=O` registered a TGI of 28.6 µM.
On the same count and under the same terms, as for `COc1cc2c(cc1O)C1Cc3ccc(OC)c(O)c3C(C2)N1C` (stereo unspecified), the figure is more than 100 µM.
As to `CCOC(=O)CNC(=O)c1ccccc1Nc1ccnc(C(F)(F)F)c1`, the GI50 is 43.7 µM and the TGI is more than 100 µM.
`COc1ccc2c(c1)[C@@]13CCCC[C@H]1[C@@H](C2)N(C)CC3=O`: the TGI stood at 33.3 µM.
On to `COc1cccc(/C(COc2ccc3c(c2)oc(=O)c2cc(OC)ccc23)=N/O)c1`, for which the GI50 is 18.8 µM and the TGI is more than 100 µM.
On to `N=C(N)SCc1cccc(-c2nc3ccccc3c(=O)o2)c1`, for which the TGI is more than 100 µM.
Consider `COc1cc2c(c(OC)n1)[C@]1(O)[C@H](O)[C@H](CN(C)C)[C@@H](c3ccccc3)[C@]1(c1ccc(C#N)cc1)O2`, for which the GI50 was 0.0371 µM and 0.0251 µM; the TGI is 3.72 µM and 5.27 µM.
`C=CCSS/C=C/CS(=O)CC=C` (stereo unspecified): the TGI was determined as 99.3 µM.

These data come from PubChem BioAssay (NCI).
